Test results taken from PMC5650142, “GPR40 partial agonists and AgoPAMs: Differentiating effects on glucose and hormonal secretions in the rodent” (PLoS ONE, 2017).
Where “and” joins values, the source holds several entries; their conditions need not be identical. Equal values may be shown once. Read-outs that look alike come from different tables or passages of the source.

Tests used:
rat GPR40 = biological target: T1, rat GPR40 (Rattus norvegicus, UniProt Q8K3T4); assay: Rat GPR40 IP1 accumulation assay; type: cell-based
T1 construct: expressed in transfected cells; host or cells: CHO-K1 (methods)
T1 sequence (Q8K3T4 whole entry): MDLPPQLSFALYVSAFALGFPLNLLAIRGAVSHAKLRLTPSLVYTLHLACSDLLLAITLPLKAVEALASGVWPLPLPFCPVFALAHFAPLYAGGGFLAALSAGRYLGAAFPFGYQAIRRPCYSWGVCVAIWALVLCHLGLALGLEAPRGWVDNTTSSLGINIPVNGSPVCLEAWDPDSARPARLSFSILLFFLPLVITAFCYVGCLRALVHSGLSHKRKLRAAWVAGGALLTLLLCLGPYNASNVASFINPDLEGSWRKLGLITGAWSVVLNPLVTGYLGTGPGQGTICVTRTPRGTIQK
Description: (§1) Stable cell lines expressing human GPR40 (hGPR40/HEK293), mouse GPR40 (mGPR40/CHO-K1), and rat GPR40 (rGPR40/CHO-K1) were cultured in DMEM media supplemented with 10% FBS, glutamine, non-essential amino acids, and penicillin/streptomycin. hGPR40/HEK293 & mGPR40/CHO-K1 cell media was supplemented with […] G418 (Life Technologies), while rGPR40/CHO-K1 cells were grown in […] blasticidin plus […] hygromycin (Life Technologies). Cell stocks were maintained and grown in a sub-confluent state using standard cell culture procedures. The day before the experiment, the cells were harvested with non-enzymatic cell dissociation buffer and re-suspended in DMEM supplemented with 10% FBS, glutamine, non-essential amino acids, penicillin/streptomycin at 0.15, 0.2 and 0.3 million cells per ml for human, mouse, and rat GPR40, respectively. […] The seeded plates were incubated overnight at 37 C.
(§2) On the day of the experiment, the growth media was removed from the assay by gently patting the assay plates on an absorbent sheet and 10 μl of IP1 stimulation buffer (Cis Bio IP-one Tb HTRF kit) supplemented with 50 mM LiCl is added to each well. Test compounds dissolved in DMSO were serially diluted in ½ log increments starting from 2 mM or 0.2 mM and 50 nl of the compound dilution was acoustically added to each well (final starting concentration 10 μM or 1 μM). Plates were then incubated for 60 minutes at room temperature and 10 μl of detection buffer (prepared as described in the Tb kit) is added to each well. The plates are then incubated one additional hour at room temperature. […] For each assay, a standard curve plate in which IP1 is titrated is also included. […] The percent activity at each concentration of test compound is determined using 0% activation (basal activity) determined in those wells that contain DMSO alone, while 100% activity is determined in wells that contained a concentration of a partial allosteric agonist know to activate GPR40. The % activity is then plotted versus the concentration of test compound and the dose response curve fitted to a standard 4-parameter non-linear regression model using a custom in-house developed software package (Merck & Co., Inc., MRL, Kenilworth, NJ, USA). Maximal % activity and EC50 are then determined for each test compound.

mouse GPR40 = biological target: T2, mouse GPR40 (Mus musculus, UniProt Q76JU9); assay: Mouse GPR40 IP1 accumulation assay; type: cell-based
T2 construct: expressed in transfected cells; host or cells: CHO-K1 (methods)
T2 sequence (Q76JU9 whole entry): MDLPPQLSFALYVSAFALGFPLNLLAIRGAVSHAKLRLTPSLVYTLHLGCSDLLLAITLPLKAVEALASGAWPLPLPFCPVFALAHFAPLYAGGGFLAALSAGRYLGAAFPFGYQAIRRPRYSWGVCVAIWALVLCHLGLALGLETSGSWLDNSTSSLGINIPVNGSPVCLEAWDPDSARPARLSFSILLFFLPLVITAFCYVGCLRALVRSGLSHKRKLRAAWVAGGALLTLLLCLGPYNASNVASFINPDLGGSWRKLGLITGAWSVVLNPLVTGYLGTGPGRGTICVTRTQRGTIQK
Description: as §1, §2

human GPR40 [1] = biological target: T3, human GPR40 (Homo sapiens, UniProt O14842); assay: Human GPR40 IP1 accumulation assay; type: cell-based; design: expressed in transfected cells
T3 sequence (O14842 whole entry): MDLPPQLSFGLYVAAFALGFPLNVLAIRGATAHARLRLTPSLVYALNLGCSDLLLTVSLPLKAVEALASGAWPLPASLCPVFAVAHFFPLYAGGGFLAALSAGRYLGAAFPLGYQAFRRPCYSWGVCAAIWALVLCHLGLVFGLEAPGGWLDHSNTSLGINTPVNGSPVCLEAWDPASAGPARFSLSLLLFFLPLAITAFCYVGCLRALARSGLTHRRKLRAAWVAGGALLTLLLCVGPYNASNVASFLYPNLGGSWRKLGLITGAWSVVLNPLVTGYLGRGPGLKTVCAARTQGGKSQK
Description: as §1, §2

human GPR40 [2] = biological target: T3, human GPR40; assay: GPR40 binding assay, partial agonist tracer [3H]L358; design: expressed in transfected cells; host or cells: CHO / CHO-K1 cells, membrane preparation; conditions: radioligand L-001533358;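 for %Bound: 100% is tracer binding with DMSO alone and 0% is full displacement by a standard compound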
Description: Two small molecule tracers, the partial agonist [3H][…] and the AgoPAM [3H]25, are used to measure compound affinity at each site as described previously. Because of the allosteric coupling of the two sites and the nature of the assay, addition of a compound will either displace (binds to same site) or augment (binds to allosterically coupled site) radiotracer. Membranes expressing GPR40 were prepared from CHO cells stably expressing human GPR40. […] Sigma P8830) and were homogenized in 50 ml aliquots with a motor-driven glass Dounce homogenizer, 15 strokes at 1900 rpm on wet ice, repeating once. Homogenates were centrifuged at 2200 rpm for 10 min at 4°C. Supernatants were carefully removed and pooled. Homogenization and centrifugation were repeated until the debris pellet was translucent to maximize membrane recovery. Supernatants were then centrifuged at […] rpm for 20 min. at 4°C. […] Protein concentration was determined by Pierce BCA kit. […] The beads and membrane mixture is then vigorously mixed for 30 minutes at room temperature prior to addition to the assay. […] Next, 15 μl of the radioligand and 35 μl of the beads/membranes solution is added to each well. The assay plates are then sealed and incubated for 30 minutes at room temperature on an orbital shaker. The plates are allowed to settle for 16 hours and then counted on a TopCount scintillation counter (PE). […] Maximal % bound and IC50 are then determined for each test compound. 5 μg/well membrane together with 200 μg/well of PVT WGA SPA beads (GE #RPNG-0001) were suspended in a white 96 well plate with a final concentration of 50 μl/well in assay buffer (50 mM Tris, 10 mM MgCl2, and 2 mM EDTA). […] The plate is briefly mixed and incubated for 3-18 h at room temperature, before it is read on a MicroBeta plate counter (Perkin Elmer, MS, USA).

[3] = maximal % activity vs in-house partial agonist control

C[C@H](C(=O)O)[C@H](c1ccc2c(c1)O[C@H](C1CN(Cc3cc(C(F)(F)F)ccc3C(F)(F)F)C1)CC2)C1CC1 [AP3]
Rat GPR40 Receptor Activation (%) (rat GPR40; dose 1.50E-11 M): -10%
Rat GPR40 Receptor Activation (%) (rat GPR40; dose 1.55E-08 M): 330%
Rat GPR40 Receptor Activation (%) (rat GPR40; dose 2.43E-10 M): 24%
Rat GPR40 Receptor Activation (%) (rat GPR40; dose 2.49E-07 M): 412%
Rat GPR40 Receptor Activation (%) (rat GPR40; dose 3.89E-09 M): 269%
Rat GPR40 Receptor Activation (%) (rat GPR40; dose 4.00E-12 M): -6.43%
Rat GPR40 Receptor Activation (%) (rat GPR40; dose 6.10E-11 M): -0.311%
Rat GPR40 Receptor Activation (%) (rat GPR40; dose 6.22E-08 M): 389%
Rat GPR40 Receptor Activation (%) (rat GPR40; dose 9.72E-10 M): 121%
Rat GPR40 Receptor Activation (%) (rat GPR40; dose 9.95E-07 M): 389%
%Act, Rat GPR40, Functional Assay (rat GPR40; individual determinations): 265% and 529% and 336% and 568% and 267% and 374% and 399% and 444% and 459% and 365% and 466% and 382%
EC50 (rat GPR40; individual determinations, read-out: EC50 (nM), Rat GPR40, Functional Assay): 0.79 nM and 0.8 nM and 0.9 nM and 1.01 nM and 1.46 nM and 1.5 nM and 2.03 nM and 2.24 nM and 2.29 nM and 0.57 nM and 0.7 nM and 0.75 nM
Efficacy (% Activation), Rat (rat GPR40; [3]): (405%)
EC50 (rat GPR40; mean ± SD, n = 2–20, IP accumulation, read-out: Potency [EC50, nM] ± SD, Rat): 1.3 ± 0.63 nM
Mouse GPR40 Receptor Activation (%) (mouse GPR40; dose 1.50E-11 M): -3.27%
Mouse GPR40 Receptor Activation (%) (mouse GPR40; dose 1.55E-08 M): 446%
Mouse GPR40 Receptor Activation (%) (mouse GPR40; dose 2.43E-10 M): 50%
Mouse GPR40 Receptor Activation (%) (mouse GPR40; dose 2.49E-07 M): 525%
Mouse GPR40 Receptor Activation (%) (mouse GPR40; dose 3.89E-09 M): 371%
Mouse GPR40 Receptor Activation (%) (mouse GPR40; dose 4.00E-12 M): -5%
Mouse GPR40 Receptor Activation (%) (mouse GPR40; dose 6.10E-11 M): 5%
Mouse GPR40 Receptor Activation (%) (mouse GPR40; dose 6.22E-08 M): 431%
Mouse GPR40 Receptor Activation (%) (mouse GPR40; dose 9.72E-10 M): 174%
%Act, Mouse GPR40, Functional Assay (mouse GPR40; individual determinations): 596% and 682% and 213% and 314% and 487% and 456% and 680% and 434% and 501% and 418%
EC50 (mouse GPR40; individual determinations, read-out: EC50 (nM), Mouse GPR40, Functional Assay): 0.64 nM and 0.73 nM and 1.06 nM and 1.33 nM and 1.52 nM and 2.22 nM and 2.5 nM and 0.46 nM and 0.58 nM and 0.59 nM
Efficacy (% Activation), Mouse (mouse GPR40; [3]): (478%)
EC50 (mouse GPR40; mean ± SD, n = 2–20, IP accumulation, read-out: Potency [EC50, nM] ± SD, Mouse): 1.2 ± 0.72 nM
Human GPR40 Receptor Activation (%) (human GPR40 [1]; dose 1.50E-11 M): -1.6%
Human GPR40 Receptor Activation (%) (human GPR40 [1]; dose 1.55E-08 M): 280%
Human GPR40 Receptor Activation (%) (human GPR40 [1]; dose 2.43E-10 M): 54%
Human GPR40 Receptor Activation (%) (human GPR40 [1]; dose 2.49E-07 M): 306%
Human GPR40 Receptor Activation (%) (human GPR40 [1]; dose 3.89E-09 M): 288%
Human GPR40 Receptor Activation (%) (human GPR40 [1]; dose 4.00E-12 M): -5%
Human GPR40 Receptor Activation (%) (human GPR40 [1]; dose 6.10E-11 M): 7%
Human GPR40 Receptor Activation (%) (human GPR40 [1]; dose 6.22E-08 M): 328%
Human GPR40 Receptor Activation (%) (human GPR40 [1]; dose 9.72E-10 M): 183%
Human GPR40 Receptor Activation (%) (human GPR40 [1]; dose 9.95E-07 M): 328%
%Act, HUMAN GPR40, Functional Assay (human GPR40 [1]; individual determinations): 407% and 332% and 338% and 274% and 324% and 328% and 239% and 282% and 383% and 273%
EC50 (human GPR40 [1]; individual determinations, read-out: EC50 (nM), HUMAN GPR40, Functional Assay): 0.32 nM and 0.43 nM and 0.46 nM and 0.47 nM and 0.73 nM and 0.8 nM and 0.91 nM and 0.19 nM and 0.24 nM and 0.27 nM
Efficacy (% Activation), Human (human GPR40 [1]; [3]): (318%)
EC50 (human GPR40 [1]; mean ± SD, n = 2–20, IP accumulation, read-out: Potency [EC50, nM] ± SD, Human): 0.48 ± 0.25 nM
% Bound Normalized to 100 (human GPR40 [2]; dose 0.318285 nM): 82.24%
%Bound (human GPR40 [2]; dose 0.318285 nM): 88.22%
% Bound Normalized to 100 (human GPR40 [2]; dose 1.00578 nM): 93.26%
%Bound (human GPR40 [2]; dose 1.00578 nM): 99.24%
% Bound Normalized to 100 (human GPR40 [2]; dose 3.17827 nM): 115.15%
%Bound (human GPR40 [2]; dose 3.17827 nM): 121.13%
% Bound Normalized to 100 (human GPR40 [2]; dose 10.0433 nM): 125.44%
%Bound (human GPR40 [2]; dose 10.0433 nM): 131.41%
% Bound Normalized to 100 (human GPR40 [2]; dose 31.7369 nM): 126.76%
%Bound (human GPR40 [2]; dose 31.7369 nM): 132.74%
% Bound Normalized to 100 (human GPR40 [2]; dose 100.289 nM): 126.17%
%Bound (human GPR40 [2]; dose 100.289 nM): 132.15%
% Bound Normalized to 100 (human GPR40 [2]; dose 316.912 nM): 135.28%
%Bound (human GPR40 [2]; dose 316.912 nM): 141.26%
% Bound Normalized to 100 (human GPR40 [2]; dose 1001.44 nM): 137.19%
%Bound (human GPR40 [2]; dose 1001.44 nM): 143.17%
% Bound Normalized to 100 (human GPR40 [2]; dose 3164.56 nM): 164.81%
%Bound (human GPR40 [2]; dose 3164.56 nM): 170.79%
% Bound Normalized to 100 (human GPR40 [2]; dose 10000 nM): 174.51%
%Bound (human GPR40 [2]; dose 10000 nM): 180.49%
